In the experiment the test system is P388 leukemia. As to the kind of experiment: NCI tumour cell line growth inhibition, 48 h.

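Where inhibition never reached the appropriate level, the endpoint shown equals the highest concentration tested. Otherwise, values were interpolated linearly from a five-concentration, 48-hour dose response in 96-well plates. At the TGI there is no net growth.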

Compound `CNC=O` displayed a TGI of more than 5.62 mM.
